pKi: −log10 of the molar value.
Columns and labels:
Type in all cases: tissue-based
[1] = target: T1, 5-hydroxytryptamine receptor 1A (Rattus norvegicus, UniProt P19327); experiment: Binding affinity towards 5-hydroxytryptamine 1A receptor in rat cerebral cortex
T1 sequence (P19327 whole entry): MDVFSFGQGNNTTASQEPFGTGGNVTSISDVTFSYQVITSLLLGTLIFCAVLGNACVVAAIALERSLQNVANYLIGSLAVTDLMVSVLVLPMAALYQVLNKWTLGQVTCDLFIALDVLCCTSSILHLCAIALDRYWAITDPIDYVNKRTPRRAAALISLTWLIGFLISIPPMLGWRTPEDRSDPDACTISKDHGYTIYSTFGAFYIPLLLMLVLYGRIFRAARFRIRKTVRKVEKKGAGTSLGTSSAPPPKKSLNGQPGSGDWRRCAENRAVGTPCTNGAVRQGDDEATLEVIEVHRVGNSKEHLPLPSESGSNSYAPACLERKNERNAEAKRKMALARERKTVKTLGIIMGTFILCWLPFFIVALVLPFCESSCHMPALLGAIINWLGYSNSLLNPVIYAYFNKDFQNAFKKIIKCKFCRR

[2] = target: T2, Adrenergic receptor alpha-2 (Rattus norvegicus, UniProt P22086+P19328+P22909); experiment: Binding affinity towards Alpha-2 adrenergic receptor in rat cerebral cortex using [3H]rauwolscine
T2 sequence (P22086 whole entry): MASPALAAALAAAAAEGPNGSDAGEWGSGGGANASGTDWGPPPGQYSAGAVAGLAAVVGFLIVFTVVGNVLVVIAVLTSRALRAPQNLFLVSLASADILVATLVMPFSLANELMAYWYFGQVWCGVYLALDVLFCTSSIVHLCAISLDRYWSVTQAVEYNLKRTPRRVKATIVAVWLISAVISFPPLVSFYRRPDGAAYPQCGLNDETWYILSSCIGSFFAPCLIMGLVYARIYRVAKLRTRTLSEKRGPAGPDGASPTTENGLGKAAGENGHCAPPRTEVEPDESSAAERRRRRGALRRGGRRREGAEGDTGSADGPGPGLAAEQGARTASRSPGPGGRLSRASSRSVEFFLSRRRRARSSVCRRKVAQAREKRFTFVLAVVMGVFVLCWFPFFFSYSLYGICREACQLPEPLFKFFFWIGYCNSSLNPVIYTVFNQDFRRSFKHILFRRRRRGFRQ
T2 sequence (P19328 whole entry): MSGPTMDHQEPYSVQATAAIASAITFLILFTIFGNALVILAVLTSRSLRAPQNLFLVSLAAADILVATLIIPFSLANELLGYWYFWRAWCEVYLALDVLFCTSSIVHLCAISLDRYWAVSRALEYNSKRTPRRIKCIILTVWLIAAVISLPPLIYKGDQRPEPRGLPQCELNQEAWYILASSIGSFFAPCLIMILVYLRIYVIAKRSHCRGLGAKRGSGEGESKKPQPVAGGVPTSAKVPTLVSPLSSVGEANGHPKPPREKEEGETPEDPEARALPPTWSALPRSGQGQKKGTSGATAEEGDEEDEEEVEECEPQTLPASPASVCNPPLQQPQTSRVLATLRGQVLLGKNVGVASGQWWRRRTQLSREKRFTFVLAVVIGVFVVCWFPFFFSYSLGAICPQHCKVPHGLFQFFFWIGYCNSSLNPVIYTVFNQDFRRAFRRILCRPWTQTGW
T2 sequence (P22909 whole entry): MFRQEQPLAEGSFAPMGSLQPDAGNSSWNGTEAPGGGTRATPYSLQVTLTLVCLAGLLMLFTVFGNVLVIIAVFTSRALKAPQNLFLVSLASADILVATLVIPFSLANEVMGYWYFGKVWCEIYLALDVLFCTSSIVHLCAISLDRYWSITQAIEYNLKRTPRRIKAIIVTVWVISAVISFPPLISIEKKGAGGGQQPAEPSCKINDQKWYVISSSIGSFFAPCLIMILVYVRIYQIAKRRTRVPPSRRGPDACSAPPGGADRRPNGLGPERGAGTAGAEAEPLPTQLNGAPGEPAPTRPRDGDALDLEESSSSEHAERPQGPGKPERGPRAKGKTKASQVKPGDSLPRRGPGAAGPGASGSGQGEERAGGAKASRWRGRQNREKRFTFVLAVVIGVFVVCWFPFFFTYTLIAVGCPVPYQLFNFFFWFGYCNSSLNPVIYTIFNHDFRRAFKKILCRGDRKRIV

[3] = target: Adrenergic receptor alpha-2 (Rattus norvegicus) (UniProt P22086+P19328+P22909); experiment: Selectivity ratio of Alpha-2 adrenergic receptor by Alpha-1 adrenergic receptor in rat cerebral cortex
[4] = target: T3, Adrenergic receptor alpha-1 (Rattus norvegicus, UniProt P15823+P23944+P43140); experiment: Binding affinity towards Alpha-1 adrenergic receptor in rat cerebral cortex using [3H]prazosin
T3 sequence (P15823 whole entry): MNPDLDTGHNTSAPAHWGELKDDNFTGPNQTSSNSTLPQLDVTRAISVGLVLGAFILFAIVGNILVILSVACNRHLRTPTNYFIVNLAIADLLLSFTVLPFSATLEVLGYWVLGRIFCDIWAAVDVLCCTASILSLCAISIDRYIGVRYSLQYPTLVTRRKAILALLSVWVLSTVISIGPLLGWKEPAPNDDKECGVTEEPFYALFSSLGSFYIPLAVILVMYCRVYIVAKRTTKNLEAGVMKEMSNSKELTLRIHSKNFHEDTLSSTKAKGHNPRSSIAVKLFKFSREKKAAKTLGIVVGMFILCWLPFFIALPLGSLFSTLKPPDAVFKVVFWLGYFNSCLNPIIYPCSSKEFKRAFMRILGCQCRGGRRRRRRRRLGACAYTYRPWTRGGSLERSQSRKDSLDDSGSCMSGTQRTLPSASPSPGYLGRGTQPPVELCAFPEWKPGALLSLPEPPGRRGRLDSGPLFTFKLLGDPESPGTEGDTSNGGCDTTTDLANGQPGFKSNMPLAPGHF
T3 sequence (P23944 whole entry): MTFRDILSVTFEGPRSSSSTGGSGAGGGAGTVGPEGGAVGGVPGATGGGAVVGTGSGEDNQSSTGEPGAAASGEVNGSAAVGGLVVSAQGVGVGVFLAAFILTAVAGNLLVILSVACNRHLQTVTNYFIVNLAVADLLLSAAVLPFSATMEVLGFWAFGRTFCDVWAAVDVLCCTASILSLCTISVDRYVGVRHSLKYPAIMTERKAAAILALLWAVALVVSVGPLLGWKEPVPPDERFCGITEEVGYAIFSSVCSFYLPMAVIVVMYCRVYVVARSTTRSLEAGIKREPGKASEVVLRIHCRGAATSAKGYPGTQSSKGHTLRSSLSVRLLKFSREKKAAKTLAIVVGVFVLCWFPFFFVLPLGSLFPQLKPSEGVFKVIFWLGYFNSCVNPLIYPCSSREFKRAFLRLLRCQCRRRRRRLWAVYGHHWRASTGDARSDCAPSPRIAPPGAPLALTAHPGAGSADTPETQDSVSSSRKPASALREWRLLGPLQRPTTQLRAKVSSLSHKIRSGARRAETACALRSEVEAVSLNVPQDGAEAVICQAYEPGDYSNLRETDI
T3 sequence (P43140 whole entry): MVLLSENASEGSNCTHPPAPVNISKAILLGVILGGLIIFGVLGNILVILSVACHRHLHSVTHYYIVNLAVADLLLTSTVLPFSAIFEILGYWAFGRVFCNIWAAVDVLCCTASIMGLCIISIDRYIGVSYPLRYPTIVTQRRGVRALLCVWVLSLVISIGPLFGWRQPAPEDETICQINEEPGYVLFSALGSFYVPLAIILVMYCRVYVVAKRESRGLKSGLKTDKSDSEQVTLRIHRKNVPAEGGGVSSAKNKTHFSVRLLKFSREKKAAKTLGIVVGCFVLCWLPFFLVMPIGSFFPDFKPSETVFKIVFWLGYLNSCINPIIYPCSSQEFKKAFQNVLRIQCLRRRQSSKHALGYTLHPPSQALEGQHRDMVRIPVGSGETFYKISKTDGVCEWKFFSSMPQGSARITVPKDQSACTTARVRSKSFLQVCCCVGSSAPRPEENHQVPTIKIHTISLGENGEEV

[5] = target: T1, 5-hydroxytryptamine receptor 1A; experiment: Binding affinity towards 5-hydroxytryptamine 1A receptor in rat cerebral cortex using [3H]-8-OH-DPAT

pKi [1] | Ki [2] [pM] | Selectivity ratio [3] | Ki [4] [pM] | pKi [5] | SMILES
9.09 | 3200 | 12 | 260 |  | CCOc1ccccc1OCCN1CCN(c2cnn(CCCCCCCN3CCN(c4ccccc4OC(C)C)CC3)c(=O)c2Cl)CC1
 |  | 3 |  |  | COc1ccccc1OCCN1CCN(c2cnn(CCCCCCCN3CCN(c4ccccc4OC)CC3)c(=O)c2Cl)CC1
 |  | 274 |  |  | COc1ccccc1N1CCN(CCCCCCCn2ncc(N3CCN(C(=O)c4ccco4)CC3)c(Cl)c2=O)CC1
 | 4000 | 8 | 500 |  | CCOc1ccccc1N1CCN(CCCCCCCn2ncc(N3CCN(C(=O)c4ccco4)CC3)c(Cl)c2=O)CC1
 | 2000 | 5 | 430 | 9.66 | CCOc1ccccc1OCCN1CCN(c2cnn(CCCCCCCN3CCN(c4ccccc4OCC)CC3)c(=O)c2Cl)CC1
 | 1600 | 3 | 550 | 9.80 | CCOc1ccccc1OCCN1CCN(c2cnn(CCCCCCCN3CCN(c4ccccc4OC)CC3)c(=O)c2Cl)CC1
 | 8200 | 14 | 580 |  | CCOc1ccccc1N1CCN(CCCCCCCn2ncc(N3CCN(CCOc4ccccc4OC)CC3)c(Cl)c2=O)CC1
 | 560 | 11 | 52 | 9.10 | CC(C)Oc1ccccc1N1CCN(CCCCCCCn2ncc(N3CCN(C(=O)c4ccco4)CC3)c(Cl)c2=O)CC1
